Common to all, as to type: cell-based
The species named for assay [1] is Homo sapiens. As to the kind of experiment: Agonist activity at recombinant human GABA-A alpha3beta2gamma2S receptor transiently expressed in human tsA201 cells at >= 100 uM incubated for 30 mins and measured up to 90 secs by FMP dye based FLIPR membrane potential blue assay.
For assay [2], the species on record is Homo sapiens. As to the kind of experiment: Selectivity ratio of IC50 for human GAT3 expressed in Flp-In CHO cells to IC50 for human BGT1 expressed in Flp-In CHO cells.
The species named for assay [3] is Homo sapiens. The experiment in a line: Selectivity ratio of IC50 for human GAT2 expressed in Flp-In CHO cells to IC50 for human BGT1 expressed in Flp-In CHO cells.
Assay [4] is filed under the species Homo sapiens. As to the kind of experiment: Selectivity ratio of IC50 for human GAT1 expressed in Flp-In CHO cells to IC50 for human BGT1 expressed in Flp-In CHO cells.
Assay [5] concerns the target Gamma-aminobutyric acid receptor subunit alpha-4/beta-2/gamma-2 (Homo sapiens, UniProt P47870+P18507+P48169). As to the kind of experiment: Agonist activity at recombinant human GABA-A alpha4beta2gamma2S receptor transiently expressed in human tsA201 cells at >= 1000 uM incubated for 30 mins and measured up to 90 secs by FMP dye based FLIPR membrane potential blue assay.

Our source for the Activity and Ratio IC50 values is ChEMBL document CHEMBL4396887, “Five-Membered N-Heterocyclic Scaffolds as Novel Amino Bioisosteres at γ-Aminobutyric Acid (GABA) Type A Receptors and GABA Transporters” (J Med Chem, 2019).

Structures are written as SMILES. Active and inactive are the calls of the source. The calls are words filed in the database; no cut-off is given here.

In the case of `O=C(O)C[C@@H]1CCNC1`, the result in the assay listed under Homo sapiens [1] was Active.

As to `NC1=NC(CC(=O)O)CN1` (stereo not given), the Ratio IC50 in the assay filed under Homo sapiens [2], in the assay filed under Homo sapiens [3] and in the assay filed under Homo sapiens [4] was 14 to 44 throughout.

`C[C@@H](C(=O)O)[C@@H]1CSC(N)=N1` (relative stereo): in assay [5], the outcome was Active.
